The text below walks through data of PubChem BioAssay (NCI).

Test systems include M19-MEL melanoma; LXFL 529 NSCLC; KM20L2 colon; HOP-18 NSCLC; DMS 273 small cell lung; DMS 114 small cell lung; RXF-631 renal; MCF7 breast; NCI/ADR-RES ovarian; T-47D breast; MDA-MB-231 breast; DU-145 prostate.
Experiment in all cases: NCI anticancer screen, dose series, 48 h

Where “and” joins values, the source holds several entries; their conditions need not be identical. Equal entries are not always repeated.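 Protocol summary: plate cells (96-well), add compound at 5 concentrations, incubate 48 h, interpolate endpoints linearly. Abbreviation: GI50, concentration required for 50% inhibition of growth. TGI: total growth inhibition.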 Where a SMILES comes first, the peptide text is derived from it.

On to `COc1ccc(-c2cc(-c3cc(Cl)cc(Br)c3O)[nH]c(=O)n2)cc1`, for which the TGI is 46.4 µM in the assay with M19-MEL melanoma; 30 µM in the assay on LXFL 529 NSCLC; 38.6 µM in the assay on KM20L2 colon; 55.7 µM in the assay on HOP-18 NSCLC; 31.1 µM in the assay with DMS 273 small cell lung; 38 µM in the assay on DMS 114 small cell lung.

As for `O=[N+]([O-])c1ccccc1C=NC12CC3CC(CC(C3)C1)C2`, the TGI in the assay with M19-MEL melanoma, in the assay with LXFL 529 NSCLC, in the assay on KM20L2 colon, in the assay with HOP-18 NSCLC, with RXF-631 renal and with DMS 273 small cell lung was greater than 100 µM each time.

With `COc1ccc2c(c1)[n+]([O-])c(-c1ccc(C)cc1)c(N)[n+]2[O-]`, the TGI with M19-MEL melanoma was greater than 100 µM; in the assay with LXFL 529 NSCLC, greater than 100 µM; in the assay with KM20L2 colon it was greater than 100 µM; with HOP-18 NSCLC, greater than 100 µM; in the assay with DMS 273 small cell lung, greater than 100 µM; in the assay with DMS 114 small cell lung it was 61.4 µM.

In the case of `CCCCN[C@H]1C2C3CC4C5CC(C42)C1(C)C53` (stereo partly drawn), the TGI in the assay on M19-MEL melanoma, in the assay with LXFL 529 NSCLC, with KM20L2 colon, in the assay on HOP-18 NSCLC, with DMS 273 small cell lung and with DMS 114 small cell lung was greater than 100 µM throughout.

Consider `Cc1cnc2c(c1)C(=O)C1=C(OC(C)(C)CC1O)C2=O` (stereo not drawn), for which the TGI was 9.86 µM in the assay with M19-MEL melanoma; 29.9 µM in the assay with LXFL 529 NSCLC; 32.5 µM in the assay on KM20L2 colon; 29.3 µM in the assay with HOP-18 NSCLC; 25.4 µM in the assay with DMS 273 small cell lung; 22.4 µM in the assay on DMS 114 small cell lung.

In the case of `COC(=O)N/N=C(/CCC(=O)Nc1ccc(C)c(C)c1)CC(=O)C(C)(C)C`, the TGI in the assay with M19-MEL melanoma, with LXFL 529 NSCLC, with KM20L2 colon, in the assay with HOP-18 NSCLC, in the assay with DMS 273 small cell lung and in the assay on DMS 114 small cell lung was greater than 100 µM each time.

In the case of `O=C(CC1(O)C(=O)Nc2ccccc21)c1ccc(O)cc1` (stereo not drawn), the TGI in the assay with M19-MEL melanoma, in the assay on LXFL 529 NSCLC, in the assay with KM20L2 colon, in the assay on HOP-18 NSCLC, in the assay with RXF-631 renal and in the assay on DMS 273 small cell lung was greater than 100 µM in each case. The TGI with DMS 114 small cell lung is greater than 100 µM.

In the case of `Cc1ccc(-c2cc(=O)c3cc(C)c(C)c(C(=O)O)c3o2)cc1N`, the TGI with M19-MEL melanoma, in the assay with LXFL 529 NSCLC, with KM20L2 colon, in the assay on HOP-18 NSCLC, in the assay on RXF-631 renal and with DMS 114 small cell lung was greater than 100 µM each time.

On to `CN[C@@H](C)[C@H](N)c1ccccc1`, for which the TGI in the assay on LXFL 529 NSCLC, in the assay on HOP-18 NSCLC, in the assay on RXF-631 renal and with DMS 273 small cell lung was greater than 100 µM in each case.

As to `CC12CO[C@@](C)(CC(S(=O)(=O)c3ccccc3)C1)O2` (stereo partly drawn), the TGI in the assay with M19-MEL melanoma, with LXFL 529 NSCLC, with KM20L2 colon, in the assay with HOP-18 NSCLC, with DMS 273 small cell lung and in the assay with DMS 114 small cell lung was greater than 100 µM throughout.

Take `CCN(CC)C(=O)N1CCN(C=S)CC1`: the TGI with M19-MEL melanoma, in the assay with LXFL 529 NSCLC, with KM20L2 colon, in the assay with HOP-18 NSCLC, in the assay with DMS 273 small cell lung and in the assay with DMS 114 small cell lung was greater than 100 µM each time.

Consider `Clc1ccc2nc(-c3ccccc3)nc(Cl)c2c1`, for which the TGI in the assay on M19-MEL melanoma, with LXFL 529 NSCLC, with KM20L2 colon, in the assay with RXF-631 renal, with DMS 273 small cell lung and in the assay on DMS 114 small cell lung was greater than 100 µM each time.

On to `CC1C[C@]2(C[C@@H](C)C(=O)O2)O[C@@H]2CC3(C)[C@@H]4CCC5C(C)(C)OC(=O)C[C@H]6OO[C@]4(CC[C@]3(C)C12)CC56O` (stereo partly drawn), for which the TGI in the assay with LXFL 529 NSCLC, with HOP-18 NSCLC, in the assay with DMS 273 small cell lung and with DMS 114 small cell lung was greater than 100 µM throughout.

Consider `O=[N+]([O-])c1cc(Cl)ccc1OCc1ccccc1`, for which the TGI in the assay with M19-MEL melanoma, in the assay on LXFL 529 NSCLC, in the assay with RXF-631 renal, in the assay with DMS 273 small cell lung and in the assay with DMS 114 small cell lung was greater than 100 µM in each case.

`NC(=O)N/N=C(/Cc1nc2ccc(C(=O)c3ccccc3)cc2[nH]c1=O)C(=O)Nc1ccc(C(F)(F)F)cc1[N+](=O)[O-]`: the TGI in the assay on M19-MEL melanoma, with LXFL 529 NSCLC, with KM20L2 colon, in the assay on HOP-18 NSCLC, with RXF-631 renal and in the assay on DMS 273 small cell lung was greater than 100 µM in each case. The TGI in the assay on DMS 114 small cell lung is greater than 100 µM.

Take `C=C1C2CC(OC(C)=O)C3(C)C(c4ccoc4)OC(=O)[C@@H](O)[C@]13OC1C[C@H](OC(C)=O)C(C)(C)[C@H](CC(=O)OC)[C@]12C` (stereo partly drawn): the TGI with M19-MEL melanoma, in the assay with LXFL 529 NSCLC, with KM20L2 colon, in the assay on HOP-18 NSCLC, with RXF-631 renal and with DMS 273 small cell lung was greater than 100 µM throughout. Also, the TGI in the assay on DMS 114 small cell lung is greater than 100 µM.

Consider `CNS(=O)(=O)NN(C)S(=O)(=O)c1ccc2ccccc2c1`, for which the TGI with M19-MEL melanoma, in the assay on LXFL 529 NSCLC, in the assay with KM20L2 colon, with RXF-631 renal, in the assay on DMS 273 small cell lung and with DMS 114 small cell lung was greater than 100 µM each time.

For `O=S1(=O)CS(=O)(=O)OCCO1`, the GI50 in the assay on MCF7 breast was 39.1 µM; with NCI/ADR-RES ovarian it was 25.7 µM; in the assay on T-47D breast it was 87.6 µM. The TGI is 348 µM with MCF7 breast; 126 µM with M19-MEL melanoma; 89.6 µM and 270 µM with NCI/ADR-RES ovarian; 331 µM with KM20L2 colon; 557 µM with T-47D breast; 352 µM in the assay with MDA-MB-231 breast. In addition, the TGI in the assay on HOP-18 NSCLC amounted to 436 µM; with DU-145 prostate, 178 µM; in the assay on DMS 273 small cell lung, 215 µM; with DMS 114 small cell lung it was 108 µM.

Take `CC(CNCCCNCCNCCCNCO)[N+](=O)[O-]` (stereo not drawn): the TGI in the assay with LXFL 529 NSCLC was found to be 13.9 µM; in the assay with KM20L2 colon it was 31.7 µM; in the assay with HOP-18 NSCLC, 28.3 µM; in the assay with RXF-631 renal, 30.3 µM; in the assay on DMS 273 small cell lung it was 32.4 µM; in the assay on DMS 114 small cell lung, 30.6 µM.

For `CC1=C(C(=O)Nc2ccc([N+](=O)[O-])cc2)C(c2ccc3c(c2)OCO3)C(C(=O)Nc2ccc([N+](=O)[O-])cc2)=C(C)N1`, the TGI was 61.6 µM in the assay with M19-MEL melanoma; greater than 100 µM in the assay on LXFL 529 NSCLC; greater than 100 µM in the assay with KM20L2 colon; greater than 100 µM with HOP-18 NSCLC; 97.4 µM in the assay with DMS 273 small cell lung; greater than 100 µM in the assay on DMS 114 small cell lung.

For the compound `CC1=C(Cl)C=CP(=O)(OC(C)C)C1` (stereo not drawn), the TGI in the assay with M19-MEL melanoma, with LXFL 529 NSCLC, in the assay on KM20L2 colon, in the assay on HOP-18 NSCLC, with RXF-631 renal and with DMS 114 small cell lung was greater than 100 µM each time.

As for `COc1ccc2c(c1)CC1c3c(ccc(OC)c3O)CC2N1C` (stereo not drawn), the TGI in the assay on M19-MEL melanoma was 56.9 µM; in the assay on LXFL 529 NSCLC it was 39 µM; in the assay on KM20L2 colon it was greater than 70 µM; with HOP-18 NSCLC it was greater than 100 µM; in the assay on RXF-631 renal, 47.1 µM; in the assay on DMS 273 small cell lung, 45.2 µM. The compound further showed a TGI in the assay with DMS 114 small cell lung of 38.8 µM.

`O=C(Nc1cc(Cl)cc(Cl)c1)/C(Cc1nc2ccccc2[nH]c1=O)=N/NC(=O)c1ccncc1`: the TGI in the assay on M19-MEL melanoma, with LXFL 529 NSCLC, in the assay on KM20L2 colon, in the assay with RXF-631 renal and in the assay with DMS 114 small cell lung was greater than 100 µM in each case.

In the case of `Cc1cccc(N2C(=O)C(=O)C(c3nc4ccccc4s3)/C(=N/NC(=S)NN)C2=O)c1C` (stereo not drawn), the TGI in the assay on M19-MEL melanoma, with LXFL 529 NSCLC, in the assay on KM20L2 colon, in the assay with RXF-631 renal, in the assay with DMS 273 small cell lung and in the assay with DMS 114 small cell lung was greater than 100 µM each time.

Consider `Cc1ccc(NC(=S)SCCC(=O)O)cc1`, for which the TGI in the assay with LXFL 529 NSCLC, with KM20L2 colon, in the assay on RXF-631 renal, with DMS 273 small cell lung and in the assay with DMS 114 small cell lung was greater than 100 µM each time.

As to `CCOC(=N)CC(=O)Nc1cccc(Cl)c1`, the TGI in the assay with M19-MEL melanoma, with LXFL 529 NSCLC, with KM20L2 colon, in the assay with RXF-631 renal and in the assay on DMS 273 small cell lung was greater than 100 µM in each case.

As to `CCC(C)C1NC(=O)C2CCCN2C(=O)CNC(=O)C(C)NC(=O)C(Cc2ccccc2)NC(=O)C(C(C)C)NC1=O` (stereo not drawn) (cyclo(GPIVFA); configuration not given here), the TGI in the assay with M19-MEL melanoma, with LXFL 529 NSCLC, in the assay on KM20L2 colon, in the assay on HOP-18 NSCLC, in the assay with RXF-631 renal and with DMS 114 small cell lung was greater than 100 µM each time.

As for `O=S1(=O)CCCS(=O)(=O)C(c2ccccc2)=C1c1ccccc1`, the TGI in the assay on M19-MEL melanoma is greater than 100 µM; with LXFL 529 NSCLC, greater than 100 µM; in the assay with KM20L2 colon it was 72.1 µM; with HOP-18 NSCLC, greater than 100 µM; with RXF-631 renal, greater than 100 µM; with DMS 114 small cell lung, greater than 100 µM.

As for `COC(=O)C1C=NNC1C(=O)OC` (stereo not drawn), the TGI in the assay on M19-MEL melanoma, with LXFL 529 NSCLC, in the assay with KM20L2 colon, in the assay with HOP-18 NSCLC, in the assay with RXF-631 renal and in the assay on DMS 273 small cell lung was greater than 100 µM throughout. The TGI in the assay with DMS 114 small cell lung was greater than 100 µM.
